Consider three molecules from US11897875B2, “Deuterated Alpha5 subunit-selective negative allosteric modulators of gamma-aminobutyric acid type a receptors as fast acting treatment for depression and mood disorders” (UNIVERSITY OF MARYLAND, BALTIMORE, priority 2017, dated 2024).

The test system of data set [1] is rats subjected to chronic multimodal stress. In words: sucrose preference test in rats under chronic multimodal stress. In kind it is in vivo, rat. The note with it: for sucrose preference (sucrose solution consumed as percentage of total): single injection, NCGC-43 3 mg/kg or ketamine 20 mg/kg, 24 hours, 7 days, 14 days after injection, stress continued. The protocol:
In the sucrose preference test, rats were given an overnight two bottle choice task (in which the sucrose solution consumption is shown as a percentage of the total solution consumed) before commencing stress (baseline), immediately after 14 days of chronic multimodal stress, and 24 hours, 7 days, and 14 days after an injection of NCGC-43 (3 mg/kg, gray), ketamine (20 mg/kg, orange), or vehicle (DMSO solution, blue), all while continuing with daily chronic multimodal stress. A control group received neither stress nor drug (yellow).

For data set [2] the test system is unchanged. In words: social interaction test in rats after chronic multimodal stress. The note with it: single injection, NCGC-43 3 mg/kg or ketamine 20 mg/kg; 24 hours after injection. In kind it is in vivo, rat. The protocol:
[…] In the social interaction test, rats were given a choice between spending time in a chamber with a novel caged juvenile rat and a chamber with an empty cage before commencing stress (baseline), immediately after 14 days of chronic multimodal stress, and 24 hours after an injection of NCGC-43 (3 mg/kg, gray), ketamine (20 mg/kg, orange), or vehicle (DMSO solution, blue). Social interaction computed as percent time spent with the novel animal. A control group received neither stress nor drug (yellow).

Data set [3] shares this test system. Description: open field test. Particulars: 3 mg/kg. In kind it is in vivo, rat. The protocol: FIG. 4A is a schematic of the open field test. […] Behavioral measurements were made before commencing stress (baseline), immediately after 14 days of chronic multimodal stress, and 24 hours after an injection of NCGC-43 (3 mg/kg) or vehicle (DMSO solution).
The test system of data set [4] is naïve rats and rats subjected to 14 days of chronic multimodal stress. In words: forced swim test. In kind it is in vivo, rat. The note with it: for time the animals spent immobile / latency until the animals ceased to struggle and become immobile: NCGC-43 3 mg/kg or ketamine 20 mg/kg, 24 hours after injection; for time the animals spent immobile: vs stressed animals given vehicle (FIG. 6A); for latency until the animals ceased to struggle and become immobile: vs stressed animals given vehicle (FIG. 6B). From the text: NCGC-43 and ketamine both exert an antidepressant-like response in this test. […] See also FIG. 6C and FIG. 6D.

Data set [5] is described as follows: metabolic stability in rat hepatocytes in vitro. In kind it is in vitro ADME. Particulars: rat liver hepatocytes. The source says: (§1) Table 1, below, presents data regarding the half-life of […] in rat and human liver hepatocytes, in vitro, showing an increase in half-life for the deuterated compounds. Stability improved more in human hepatocytes compared to rat hepatocytes, with variation between the hepatocyte studies. […] Longer half-life also allows less frequent dosing. […] Deuteration preferably is located at the site of metabolism, since installing deuterium atoms at the site of metabolism more readily increases the half-life of the compound.

Data set [6] concerns rat liver hepatocytes. In words: metabolic stability in rat hepatocytes in vitro. In kind it is in vitro ADME. The note with it: 3 hours.
Excerpt: as §1

For data set [7], the system named is human liver hepatocytes. Description: metabolic stability in human hepatocytes in vitro. In kind it is in vitro ADME.
Excerpt: as §1

Data set [8] can be described thus: metabolic stability in human hepatocytes in vitro. Particulars: human liver hepatocytes; human hepatocytes in vitro. The data set is classed as in vitro ADME.
Excerpt: as §1

The conditions of data set [9]: as a nootropic; cited from earlier work.
Data set [10] has as its system rats subjected to chronic multimodal stress. Description: elevated plus maze. The note with it: NCGC-43 3 mg/kg or ketamine 20 mg/kg; 24 hours after injection. The data set is classed as in vivo, rat. On the procedure: In the elevated plus maze, rats were given a choice between spending time in one of two arms of an elevated cross-shaped maze (one arm closed and the other arm open), immediately after 14 days of chronic multimodal stress, and 24 hours after an injection of NCGC-43 (3 mg/kg) or ketamine (20 mg/kg). A control group was unstressed and received a vehicle injection (DMSO).

In the case of `[2H]C([2H])([2H])c1onc(-c2ccc(F)cc2)c1COc1ccc(C(=O)N2CCS(=O)(=O)CC2)cn1` [NCGC-43, (1,1-dioxidothiomorpholino)(6-((3-(4-fluorophenyl)-5-(methyl-d3)isoxazol-4-yl)methoxy)pyridin-3-yl)methanone], the “antidepressant effects compared with ketamine” value in data set [1] (NCGC-43 3 mg/kg vs ketamine 20 mg/kg) was “comparable to ketamine”. In addition, in [1], the “sucrose preference (sucrose solution consumed as percentage of total)” value is “restored sucrose preference in a rapid (within 24 hours) and persistent (up to 14 days) manner”. For the same molecule, the “social interaction (percent time spent with the novel animal)” value in data set [2] is recorded as “restored their preference for interacting with a novel animal”. Further, the overall locomotor activity entry in [3] (24 hours after injection (FIG. 4B)) is on record as “neither chronic stress nor injection of NCGC-43 or vehicle had any significant effects”. The “time spent in the corners and sides” value in [3] (24 hours after injection (FIG. 4C)) is “neither chronic stress nor injection of NCGC-43 or vehicle had any significant effects”. Moreover, the “ratio of time spent in the center of the chamber to time spent in the corners/sides” value in [3] (24 hours after injection (FIG. 4D)) was “neither chronic stress nor injection of NCGC-43 or vehicle had any significant effects”. In addition, in data set [3] (24 hours after injection (FIG. 4E)), the “latency before the animals first entered the center of the chamber” value is “mildly decreased the latency”. In data set [4] (3 mg/kg, 1 hour vs 24 hours after injection), the “time course of effect (responses at 1 hour and 24 hours)” value is “rapid and persistent effects similar to those described previously for ketamine”. Also, in data set [4], the “time the animals spent immobile” value is reported as “a decrease in the time the animals spent immobile”; the “latency until the animals ceased to struggle and become immobile” value is recorded as “an increase in the latency”. For the same molecule, the “latency to immobility, dose-response” value in data set [4] (intraperitoneal, increasing doses, 1 or 24 hours after injection (FIG. 7)) was “significant efficacy at 1 and 3 mg/kg”. The half-life in data set [5] was 38.4 min. Also, the “Percentage Remaining at 3 Hours” value in data set [6] worked out at 3.9%. In data set [7] (human hepatocytes in vitro), the “Half-life (hours)” value is recorded as “Stable” and the “Percentage Remaining at 3 Hours” value was found to be 100%. In addition, the “metabolic stability compared with non-deuterated RG-1662” value in data set [7] (rat and human hepatocytes in vitro, improved more in human) is “more metabolically stable”.
`Cc1onc(-c2ccc(F)cc2)c1COc1ccc(C(=O)N2CCS(=O)(=O)CC2)cn1` [RG-1662, (1,1-Dioxidothiomorpholino)(6-((3-(4-fluorophenyl)-5-methylisoxazol-4-yl)methoxy)pyridin-3-yl)methanone, reference compound]: the half-life was 36 min in data set [5] and 720 min in [8]. In addition, the “Percentage Remaining at 3 Hours” value is 3.3% in [6] and 83.7% in data set [7] (human hepatocytes in vitro). Besides, the “efficacy in phase II clinical trials” value in data set [9] is “not efficacious”. Besides, in [9], the “safety in phase II clinical trials” value is reported as “safe”.
Regarding `CNC1(c2ccccc2Cl)CCCCC1=O` (stereo not drawn) [ketamine, reference compound], in data set [1], the “sucrose preference (sucrose solution consumed as percentage of total)” value is “restored sucrose preference in a rapid (within 24 hours) and persistent (up to 14 days) manner”. For the same molecule, the “social interaction (percent time spent with the novel animal)” value in [2] is reported as “restored their preference for interacting with a novel animal”. For the same molecule, the “percent of time spent in the closed arm” value in data set [10] is “increased the percent of time the rat spent in the closed arm”. Moreover, in data set [4], the “time the animals spent immobile” value is “a decrease in the time the animals spent immobile”; the “latency until the animals ceased to struggle and become immobile” value is recorded as “an increase in the latency”.

In general, half-life refers to the time needed for the level to fall by half in the phase considered. Low readings indicate rapid decline, high ones slow decline.
